Activity calls are given as the source filed them. No rule for the calls is given here.
System: Broad 7084-01 inhibitor HTS, set 2
Test: single-concentration hits, screen 7084 set 2 (AID 977613);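 also: host cells are infected with parasite promastigotes that become internalized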

| Compound | active concentration |
| --- | --- |
| Cc1ccc(CN2CC(=O)N3[C@H](CO)[C@@H](c4ccc(-c5ccccc5F)cc4)[C@H]3C2)cc1 | > 10 µM (inactive) |
| O=C(C[C@H]1CC[C@@H]2[C@H](COC[C@@H](O)CN2C(=O)Nc2ccc(Cl)cc2)O1)NCC1CC1 | > 10 µM (inactive) |
| CC(C)(O)C#Cc1ccc([C@H]2[C@@H](CO)N3CCCCN(S(C)(=O)=O)C[C@@H]23)cc1 | > 10 µM (inactive) |
| Cn1cnc(S(=O)(=O)N2C[C@H](O)COC[C@H]3O[C@@H](CC(=O)NC4CCCC4)CC[C@@H]32)c1 | > 10 µM (inactive) |
| COc1cccc(-c2ccc([C@@H]3[C@@H](CO)N4C(=O)CNC[C@H]34)cc2)c1 | > 10 µM (inactive) |
| CC(C)C#Cc1ccc([C@H]2[C@H](CO)N3C(=O)CN(C(=O)c4ccc5c(c4)OCO5)C[C@@H]23)cc1 | > 10 µM (inactive) |
| N#C[C@@H]1[C@@H](c2ccccc2-c2ccccc2F)[C@@H](CO)N1C(=O)C1CCC1 | > 10 µM (inactive) |
| O=C(C[C@@H]1CC[C@H]2[C@@H](COC[C@H](O)CN2Cc2cccc(C(F)(F)F)c2)O1)NCc1ccccc1 | > 10 µM (inactive) |
| O=S(=O)(c1ccccc1)N1CCCCN2[C@@H](CO)[C@@H](c3ccc(C#CC4CCCC4)cc3)[C@@H]2C1 | > 10 µM (inactive) |
| COc1cccc(C(=O)Nc2ccc3c(c2)C(=O)N(C)[C@@H]2CC[C@H](CC(=O)NCCCN4CCOCC4)O[C@H]2CO3)c1 | > 10 µM (inactive) |
| CN(C)CC(=O)N1CCCCN2[C@H](CO)[C@H](c3ccc(/C=C/c4ccccc4)cc3)[C@H]2C1 | < 10 µM |
| COc1ccc(NC(=O)N2CC(=O)N3[C@H](CO)[C@@H](c4ccc(Br)cc4)[C@@H]3C2)cc1 | > 10 µM (inactive) |
| CCS(=O)(=O)N1CC2(CN(CC3CCOCC3)[C@@H](CO)c3c2c2ccc(OC)cc2n3C)C1 | > 10 µM (inactive) |
| COC(=O)C[C@@H]1CC[C@@H]2[C@@H](COc3ccc(NS(=O)(=O)c4ccccc4Cl)cc3C(=O)N2C)O1 | > 10 µM (inactive) |
